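All cell lines were grown in 96-well plates and treated with compound for 48 hours. GI50 marks 50% less growth. TGI denotes the concentration required for complete inhibition of growth.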
What was measured:
Experiment in all cases: NCI-60 cell line screen, 48 h; in the data active means GI50 below about 0.43 µM; inactive means the rest
786-0 renal = system: 786-0 renal
A498 renal = system: A498 renal
A549 NSCLC = system: A549 NSCLC
ACHN renal = system: ACHN renal
BT-549 breast = system: BT-549 breast
CAKI-1 renal = system: CAKI-1 renal
CCRF-CEM leukemia = system: CCRF-CEM leukemia
COLO 205 colon = system: COLO 205 colon
DU-145 prostate = system: DU-145 prostate
EKVX NSCLC = system: EKVX NSCLC
HCC-2998 colon = system: HCC-2998 colon
HCT-116 colon = system: HCT-116 colon
HCT-15 colon = system: HCT-15 colon
HL-60(TB) leukemia = system: HL-60(TB) leukemia
HOP-62 NSCLC = system: HOP-62 NSCLC
HS 578T breast = system: HS 578T breast
HT29 colon = system: HT29 colon
IGROV1 ovarian = system: IGROV1 ovarian
K-562 leukemia = system: K-562 leukemia
KM12 colon = system: KM12 colon
LOX IMVI melanoma = system: LOX IMVI melanoma
M14 melanoma = system: M14 melanoma
MALME-3M melanoma = system: MALME-3M melanoma
MCF7 breast = system: MCF7 breast
MDA-MB-231 breast = system: MDA-MB-231 breast
MDA-MB-435 = system: MDA-MB-435
MOLT-4 leukemia = system: MOLT-4 leukemia
NCI-H226 lung = system: NCI-H226 lung
NCI-H23 lung = system: NCI-H23 lung
NCI-H522 lung = system: NCI-H522 lung
NCI/ADR-RES ovarian = system: NCI/ADR-RES ovarian
OVCAR-3 ovarian = system: OVCAR-3 ovarian
OVCAR-4 ovarian = system: OVCAR-4 ovarian
OVCAR-5 ovarian = system: OVCAR-5 ovarian
OVCAR-8 ovarian = system: OVCAR-8 ovarian
PC-3 prostate = system: PC-3 prostate
RPMI-8226 leukemia = system: RPMI-8226 leukemia
RXF 393 renal = system: RXF 393 renal
SF-268 CNS = system: SF-268 CNS
SF-295 CNS = system: SF-295 CNS
SF-539 CNS = system: SF-539 CNS
SK-MEL-2 melanoma = system: SK-MEL-2 melanoma
SK-MEL-28 melanoma = system: SK-MEL-28 melanoma
SK-OV-3 ovarian = system: SK-OV-3 ovarian
SN12C renal = system: SN12C renal
SNB-19 CNS = system: SNB-19 CNS
SNB-75 CNS = system: SNB-75 CNS
SR leukemia = system: SR leukemia
SW-620 colon = system: SW-620 colon
T-47D breast = system: T-47D breast
TK-10 renal = system: TK-10 renal
U251 CNS = system: U251 CNS
UACC-257 melanoma = system: UACC-257 melanoma
UACC-62 melanoma = system: UACC-62 melanoma
UO-31 renal = system: UO-31 renal

CN(c1ccc(Br)cc1)S(=O)(=O)c1ccc(-c2cnc(C3CC3)o2)cc1
403 nM: TGI (RXF 393 renal)
2470 nM: TGI (RPMI-8226 leukemia)
> 52100 nM: TGI (SNB-75 CNS)
> 40700 nM: TGI (NCI/ADR-RES ovarian)
active: GI50 (786-0 renal) 397 nM | GI50 (A498 renal) 50 nM | GI50 (A549 NSCLC) 321 nM | GI50 (CAKI-1 renal) 84.6 nM | GI50 (CCRF-CEM leukemia) 86.2 nM | GI50 (COLO 205 colon) 370 nM | GI50 (DU-145 prostate) 375 nM | GI50 (HCC-2998 colon) 299 nM | GI50 (HCT-116 colon) 129 nM | GI50 (HCT-15 colon) 60.3 nM | GI50 (HL-60(TB) leukemia) 32.6 nM | GI50 (HOP-62 NSCLC) 412 nM | GI50 (HS 578T breast) 279 nM | GI50 (HT29 colon) 210 nM | GI50 (IGROV1 ovarian) 253 nM | GI50 (K-562 leukemia) 41.9 nM | GI50 (KM12 colon) 225 nM | GI50 (LOX IMVI melanoma) 93.9 nM | GI50 (M14 melanoma) 156 nM | GI50 (MCF7 breast) 45.1 nM | GI50 (MDA-MB-435) 30.9 nM | GI50 (MOLT-4 leukemia) 286 nM | GI50 (NCI-H226 lung) 284 nM | GI50 (NCI-H23 lung) 393 nM | GI50 (NCI-H522 lung) 374 nM | GI50 (NCI/ADR-RES ovarian) 73.2 nM | GI50 (OVCAR-3 ovarian) 109 nM | GI50 (PC-3 prostate) 121 nM | GI50 (RPMI-8226 leukemia) 209 nM | GI50 (RXF 393 renal) 85.9 nM | GI50 (SF-295 CNS) 71.2 nM | GI50 (SF-539 CNS) 142 nM | GI50 (SNB-19 CNS) 271 nM | GI50 (SNB-75 CNS) 114 nM | GI50 (SR leukemia) 48.5 nM | GI50 (SW-620 colon) 82.7 nM | GI50 (U251 CNS) 324 nM | GI50 (UACC-62 melanoma) 65.8 nM
5270 nM: TGI (OVCAR-3 ovarian)
142 nM: TGI (HL-60(TB) leukemia)
111 nM: TGI (MDA-MB-435)
inactive: GI50 (ACHN renal) 677 nM | GI50 (BT-549 breast) 2960 nM | GI50 (EKVX NSCLC) 454 nM | GI50 (MALME-3M melanoma) 3840 nM | GI50 (MDA-MB-231 breast) 480 nM | GI50 (OVCAR-4 ovarian) 774 nM | GI50 (OVCAR-5 ovarian) 524 nM | GI50 (OVCAR-8 ovarian) 597 nM | GI50 (SF-268 CNS) 1160 nM | GI50 (SK-MEL-2 melanoma) 1340 nM | GI50 (SK-MEL-28 melanoma) 9450 nM | GI50 (SK-OV-3 ovarian) 5330 nM | GI50 (SN12C renal) 1030 nM | GI50 (T-47D breast) 839 nM | GI50 (TK-10 renal) > 64400 nM | GI50 (UACC-257 melanoma) > 53300 nM | GI50 (UO-31 renal) 880 nM
> 27400 nM: TGI (MDA-MB-231 breast)
> 100000 nM: TGI (786-0 renal) | TGI (A549 NSCLC) | TGI (ACHN renal) | TGI (BT-549 breast) | TGI (CAKI-1 renal) | TGI (CCRF-CEM leukemia) | TGI (COLO 205 colon) | TGI (DU-145 prostate) | TGI (EKVX NSCLC) | TGI (HCC-2998 colon) | TGI (HCT-116 colon) | TGI (HCT-15 colon) | TGI (HOP-62 NSCLC) | TGI (HS 578T breast) | TGI (HT29 colon) | TGI (IGROV1 ovarian) | TGI (K-562 leukemia) | TGI (KM12 colon) | TGI (LOX IMVI melanoma) | TGI (M14 melanoma) | TGI (MALME-3M melanoma) | TGI (MCF7 breast) | TGI (MOLT-4 leukemia) | TGI (NCI-H23 lung) | TGI (NCI-H522 lung) | TGI (OVCAR-4 ovarian) | TGI (OVCAR-5 ovarian) | TGI (OVCAR-8 ovarian) | TGI (PC-3 prostate) | TGI (SF-268 CNS) | TGI (SF-295 CNS) | TGI (SK-MEL-2 melanoma) | TGI (SK-MEL-28 melanoma) | TGI (SK-OV-3 ovarian) | TGI (SN12C renal) | TGI (SNB-19 CNS) | TGI (SR leukemia) | TGI (SW-620 colon) | TGI (T-47D breast) | TGI (TK-10 renal) | TGI (U251 CNS) | TGI (UACC-257 melanoma) | TGI (UACC-62 melanoma) | TGI (UO-31 renal)
700 nM: TGI (A498 renal)
2700 nM: TGI (SF-539 CNS)
7520 nM: TGI (NCI-H226 lung)

Reference: PubChem BioAssay (NCI)
